# Experiments:
# AR 1.0 cells [1] = assay: Drug accumulation assay: daunorubicin accumulation in AR 1.0 cells; format: cell-based; details: Mus musculus, 100% = accumulation with verapamil 100 μM, 1 hr, 37° C.
# Procedure, shortened: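 Daunorubicin accumulation was measured in cells plated 48 h beforehand. These were AR 1.0 cells, an MDR-resistant derivative of mouse EMT6 mammary carcinoma, cultured at 37 °C in 5% CO2 in RPMI 1640 plus 10% foetal calf serum and 2 mM glutamine.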
# AR 1.0 cells [2] = assay: Potentiation of doxorubicin toxicity: proliferation assay (sulphorhodamine B); format: cell-based, mouse
# Description: (a) Selected compounds of formula (I) were examined for their ability to potentiate the toxicity of doxorubicin in AR 1.0 cells.
# AR 1.0 cells [3] = assay: Potentiation index with doxorubicin titration; format: cell-based, mouse; details: for Potentiation Index at RMA concentration 10 nM: Table C1, RMA 10 nM; for Potentiation Index at RMA concentration 30 nM: Table C1, RMA 30 nM; for Potentiation Index at RMA concentration 50 nM: Table C1, RMA 50 nM; for Potentiation Index at RMA concentration 100 nM: Table C1, RMA 100 nM
# Procedure: The EMT6 mouse mammary carcinoma cell line and the MDR resistant subline AR 1.0 were cultured in RPMI 1640 medium containing 10% foetal calf serum and 2 mM glutamine at 37° C. in 5% CO2. Cells were passaged between 1 in 200 and 1 in 2000 in the case of the parental cell line and between 1 in 20 and 1 in 200 in the case of the MDR resistant subline, after trypsinisation (0.25% trypsin, 0.2 gl^-1, EDTA). […]
# (b) Cells were cultured for four days with a titration of doxorubicin (0.263 nM-17.24 μM) in the presence of a fixed concentration of each compound. Proliferation was quantified as described by Skehen et al, loc cit. The IC50 (concentration required to reduce proliferation to 50% of the untreated controls) for doxorubicin alone and with each compound were derived and used to calculate the potentiation index (PI): [formula]
# [4] = Mus musculus, 96 h, compound alone, four day proliferation, read-out: Compound Toxicity (IC50)
# [5] = with fixed doxorubicin 0.34 μm, four days, 5760 min, read-out: Toxicity with Cytotoxic Agent (IC50)
SMILES,IC50 (AR 1.0 cells [1]) [nM],IC50 (AR 1.0 cells [2]; [4]) [nM],IC50 (AR 1.0 cells [2]; [5]) [nM],toxicity of doxorubicin alone to AR 1.0 cells (AR 1.0 cells [2]; fixed concentration 0.34 μm),Potentiation Index at RMA concentration 10 nM (AR 1.0 cells [3]),Potentiation Index at RMA concentration 30 nM (AR 1.0 cells [3]),Potentiation Index at RMA concentration 50 nM (AR 1.0 cells [3]),Potentiation Index at RMA concentration 100 nM (AR 1.0 cells [3]),"Potentiation Index at RMA concentration 20 nM (AR 1.0 cells [3]; Table C1, RMA 20 nM)"
"COc1cc2c(cc1OC)CN(CCNC(=O)c1ccccc1NC(=O)c1ccc(C(C)(C)C)cc1)CC2 [compound 9334, 2-(4-tert-Butyl-benzoylamino)-N-[2-(6,7-dimethoxy-3,4-dihydro-1H-isoquinolin-2-yl)-ethyl]-benzamide]",1300,8000,50,–,–,–,–,–,–
COc1cc2c(cc1OC)CN(CCNC(=O)c1ccccc1NC(=O)c1ccc(N(C)C)cc1)CC2 [compound 9256],1700,40000,300,–,–,–,–,–,–
"COc1cccc2c1C(=O)c1c(O)c3c(c(O)c1C2=O)C[C@@](O)(C(=O)CO)C[C@@H]3O[C@H]1C[C@H](N)[C@H](O)[C@H](C)O1 [doxorubicin, reference compound]",–,–,–,non-toxic,–,–,–,–,–
"COc1cc2c(cc1OC)CN(CCc1ccc(NC(=O)c3ccccc3NC(=O)c3cccnc3)cc1)CC2 [compound 9482, N-(2-{4-[2-(6,7-Dimethoxy-3,4-dihydro-1H-isoquinolin-2-yl)-ethyl]-phenylcarbamoyl}-phenyl)-nicotinamide]",540,12000,220,–,–,–,–,–,–
"CCCCN(CCc1ccc(NC(=O)c2ccccc2NC(=O)c2cnc3ccccc3c2)cc1)Cc1ccc(OC)c(OC)c1 [compound 9641, Quinoline-3-carboxylic acid [2-(4-{2-[butyl-(3,4-dimethoxy-benzyl)-amino]-ethyl}-phenylcarbamoyl)-phenyl]-amide]",1.9,–,–,–,1.5,17,46,162,–
"CCCCOc1ccc(CN(C)CCc2ccc(NC(=O)c3ccccc3NC(=O)c3cnc4ccccc4c3)cc2)cc1OC [compound 9642, Quinoline-3-carboxylic acid [2-(4-{2-[(4-butoxy-3-methoxy-benzyl)-methyl-amino]-ethyl}-phenylcarbamoyl)-phenyl]-amide]",341,–,–,–,1.0,1.2,2.5,14,–
"COc1cc2c(cc1OC)CN(CCc1cccc(NC(=O)c3ccccc3NC(=O)c3cnc4ccccc4c3)c1)CC2 [compound 9633, Quinoline-3-carboxylic acid (2-{3-[2-(6,7-dimethoxy-3,4-dihydro-1H-isoquinolin-2-yl)-ethyl]-phenylcarbamoyl}-phenyl)-amide]",593,–,–,–,1.0,1.3,3.4,13.7,–
"COc1cc2c(cc1OC)CN(CCc1ccc(NC(=O)c3nccnc3NC(=O)c3cnc4ccccc4c3)cc1)CC2 [compound 9622, Quinoline-3-carboxylic acid (3-{4-[2-(6,7-dimethoxy-3,4-dihydro-1H-isoquinolin-2-yl)-ethyl]-phenylcarbamoyl}-pyrazin-2-yl)-amide]",207,–,–,–,1.8,15,46,79,8
"COc1ccc(CN(C)CCc2ccc(NC(=O)c3ccccc3NC(=O)c3cnc4ccccc4c3)cc2)cc1OC(C)C [compound 9639, Quinoline-3-carboxylic acid [2-(4-{2-[(3-isopropoxy-4-methoxy-benzyl)-methyl-amino]-ethyl}-phenylcarbamoyl)-phenyl]-amide]",108,–,–,–,2.6,34,78,136,–
"COc1cc(CCN2CCc3cc(OC)c(OC)cc3C2)ccc1NC(=O)c1ccccc1NC(=O)c1cnc2ccccc2c1 [compound 9651, Quinoline-3-carboxylic acid (2-{4-[2-(6,7-dimethoxy-3,4-dihydro-1H-isoquinolin-2-yl)-ethyl]-2-methoxy-phenylcarbamoyl}-phenyl)-amide]",71,–,–,–,–,–,1.1,2.2,–
"COc1ccc(CN(C)CCc2ccc(NC(=O)c3ccc(Cl)cc3NC(=O)c3cnc4ccccc4c3)cc2)cc1OC [compound 9663, Quinoline-3-carboxylic acid [5-chloro-2-(4-{2-[(3-4-dimethoxy-benzyl)-methyl-amino]-ethyl}-phenylcarbamoyl)-phenyl]-amide]",175,–,–,–,50,80,74,82,–
"CN(CCc1ccc(NC(=O)c2ccccc2NC(=O)c2cnc3ccccc3c2)cc1)Cc1ccc(N(C)C)cc1 [compound 9655, Quinoline-3-carboxylic acid [2-(4-{2-[(4-dimethylamino-benzyl)-methyl-amino]-ethyl}-phenylcarbamoyl)-phenyl]-amide]",557,–,–,–,1.8,13,37,65,–
"COc1cc(CN(C)CCc2ccc(NC(=O)c3ccccc3NC(=O)c3cnc4ccccc4c3)cc2)cc(OC)c1OC [compound 9640, Quinoline-3-carboxylic acid [2-(4-{2-[methyl-(3,4,5-trimethoxy-benzyl)-amino]-ethyl}-phenylcarbamoyl)-phenyl]-amide]",194,–,–,–,1,2.5,4.6,23.8,–
"COc1ccc(CCN(C)CCc2ccc(NC(=O)c3ccccc3NC(=O)c3cnc4ccccc4c3)cc2)cc1OC [compound 9630, Quinoline-3-carboxylic acid {2-[4-(2-{[2-(3,4-dimethoxy-phenyl)-ethyl]-methyl-amino}-ethyl)-phenylcarbamoyl]-phenyl}-amide]",235,–,–,–,1,2,6,26,–
"COc1cc2c(cc1OC)C(C)N(CCc1ccc(NC(=O)c3ccccc3NC(=O)c3cnc4ccccc4c3)cc1)CC2 (centres unmarked) [compound 9625, Quinoline-3-carboxylic acid (2-{4-[2-(6,7-dimethoxy-1-methyl-3,4-dihydro-1H-isoquinolin 2-yl)-ethyl]-phenylcarbamoyl}-phenyl)-amide]",347,–,–,–,1,4,7,60,–
"COc1cc2c(cc1OC)CN(CCc1ccc(NC(=O)c3cc(SC)ccc3NC(=O)c3cnc4ccccc4c3)cc1)CC2 [compound 9615, Quinoline-3-carboxylic acid (2-{4-[2-(6,7-dimethoxy-3,4-dihydro-1H-isoquinolin-2-yl)-ethyl]-phenylcarbamoyl}-4-methylsulfanyl-phenyl)-amide]",213,–,–,–,2,23,85,175,–
"O=C(Nc1ccccc1C(=O)Nc1ccc(CCN2CCc3cc4c(cc3C2)OCO4)cc1)c1cnc2ccccc2c1 [compound 9664, Quinoline-3-carboxylic acid (2-{4-[2-(7,8-dihydro-5H-[1,3]dioxolo[4,5-g]isoquinolin-6-yl)-ethyl]-phenylcarbamoyl}-phenyl)-amide]",1680,–,–,–,1,1.9,37,116,–

# Source: patent publication US6218393A, “Anthranilic acid derivatives as multi drug resistance modulators” (priority 1997, dated 2001)
